What was measured:
[1] = test system: Mycobacterium tuberculosis H37Rv (susceptible; ATCC: 25177); experiment: Resazurin Microplate Assay (REMA), anti-tubercular activity, susceptible strain; assay type: cell-based; details: 192 h, read-out: MIC (μg/mL) Susceptible (H37Rv), H37Rv, ATCC: 25177, 8 days incubation at 37° C.

Cc1cc(C)c[n+](CC(=O)c2ccc(Cl)cc2)c1.[Br-]
melting point: 125 °C

Cc1cc(C)c[n+](CC(=O)c2ccc(Br)cc2)c1.[Br-]
melting point: 210 °C

Cc1cc(C)c[n+](CC(=O)c2ccc(F)cc2)c1.[Br-] [Compound 3d, 1-(2-(4-Fluorophenyl)-2-oxoethyl)-3,5-dimethylpyridin-1-ium bromide]
MIC [1]: ~8 µg/mL | melting point: 123 °C

COc1ccc(C(=O)C[n+]2cc(C)cc(C)c2)cc1.[Br-]
melting point: 108 °C
